Data as given in article PMC5877736, “Functional Characteristics, Electrophysiological and Antennal Immunolocalization of General Odorant-Binding Protein 2 in Tea Geometrid, Ectropis obliqua” (International Journal of Molecular Sciences, 2018).
Read-outs that look alike come from different tables or passages of the source.

Columns and labels:
EoblGOBP2 = EoblGOBP2 (Ectropis obliqua, UniProt C0JAP5); experiment: Competitive fluorescence ligand-binding assay with 1-NPN as fluorescent probe; conditions: for binding to EoblGOBP2 (in words): competitive binding with 1-NPN
EoblGOBP2, sequence (C0JAP5 entry or part of it): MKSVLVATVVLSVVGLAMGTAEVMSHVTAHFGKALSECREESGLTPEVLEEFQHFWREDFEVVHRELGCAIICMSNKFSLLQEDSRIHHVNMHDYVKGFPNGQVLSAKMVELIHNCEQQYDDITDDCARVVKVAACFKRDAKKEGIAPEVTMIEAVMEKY
Method: For EoblGOBP2 binding assays, 1-NPN was used as a competitive fluorescent reporter. When 1-NPN was added dropwise to the protein solution, the maximum emission peak at 340 nm was shifted to about 420 nm. The dissociation constant of 1-NPN to EoblGOBP2 was approximately 2.31 μM calculated using the Scatchard equation (Figure 5A). Using 1-NPN as a fluorescent probe, the binding affinities of EoblGOBP2 to 19 ligands were measured using competitive binding assays. IC50 values and dissociation constants (KD) were then calculated (Table 1).
Ligand-binding assays were performed on a RF-5031pc Fluorescence Spectrophotometer (Shimadzu, Tokyo, Japan). The excitation and emission slits were set to 10 nm. Fluorescence spectra were recorded from 300 to 550 nm with an excitation wavelength of 282 nm. The recombinant EoblGOBP2 protein solutions (1.5 μM), served in 1 cm light path quartz cuvette, were titrated with 1 mM 1-NPN solution in methanol. The fluorescence intensity at the maximum emission wavelength of about 328 nm was linearized using the Scatchard equation [46], then the dissociation constants for 1-NPN (K1-NPN) was calculated.
Nineteen fresh tea leaf volatiles were used as test ligands. For the binding affinities of the ligands to EoblGOBP2, a mixture of 1-NPN and EoblGOBP2 protein was titrated with 1 μM ligands dissolved in methanol. The IC50 values were obtained by data linearization, and the dissociation constants (KD) were calculated using the following equation: KD = [IC50]/(1 + [1-NPN]/K1-NPN), where [1-NPN] is the free concentration of 1-NPN, and K1-NPN is the dissociation constant of the protein/1-NPN complex.

E. obliqua antennae = experiment: Electroantennogram (EAG) of male and female antennae; set-up: species or system Ectropis obliqua; conditions: volatiles at 10 mg/mL (Figure 7)
Method: To characterize the relationship between ligand-binding and E. obliqua olfactory activity, seven ligands with strong EoblGOBP2 binding affinities were selected for EAG measurements.
The antennal olfactory responses of E. obliqua to seven candidate tea volatiles were tested by the EAG technique. Prior to EAG experiments, all test ligands were dissolved into liquid paraffin at a concentration of 0.1 (v/v). The fresh […] antenna were excised from its base, and immediately attached onto the fork electrode holder using non-drying clay (Spectra 360 Electrode Gel, Parker Laboratories Inc., Orange, NJ, USA). […] All antennae should be tested in three replicates.
The odor stimulus was performed in the pulse while recording the electroantennogram of antennae. (E)-3-hexenol and liquid paraffin were chosen as the positive and negative control CK, respectively. All antennae were stimulated with five samples, and each tested sample was repeated six times. EAG signals were recorded and analyzed with EAG-Pro software (Syntech, Hilversum, NT). The relative values of EAG response were calculated using the following formula: Sr = (Sc − CKm)/(Rm − CKm)·100% [52]. Where Sr is the relative value of the EAG response, Sc is the EAG response for a certain odor, CKm is the mean of the EAG responses of liquid paraffin before and after the test odor stimulus, and Rm is the mean of the EAG response of (Z)-3-hexenol.

[1] = class symbol, protein 1.5 μM, read-out: KD Dissociation Constant
[2] = calculated from IC50: KD = [IC50]/(1 + [1-NPN]/K1-NPN), protein 1.5 μM, read-out: KD Dissociation Constant
[3] = ligand concentration halving 1-NPN fluorescence, protein 1.5 μM

| SMILES | IC50 (EoblGOBP2; class symbol, protein 1.5 μM) [µM] | Kd (EoblGOBP2; [1]) [µM] | Kd (EoblGOBP2; [2]) [µM] | IC50 (EoblGOBP2; [3]) [µM] | other results |
| --- | --- | --- | --- | --- | --- |
| CCOP(=O)(OCC)OCC [Triethyl phosphate] | > 50 | > 11.2 |  |  |  |
| CCCCCCO [n-hexanol] | > 50 | > 11.2 |  |  |  |
| C=CC(O)CC (stereo not drawn) [1-penten-3-ol] | > 50 | > 11.2 |  |  |  |
| CC(=O)/C=C/C1=C(C)CCCC1(C)C [β-ionone] |  |  | 12.6 | 56.1 | EAG response in male and female antennae (in words) (E. obliqua antennae): weak responses |
| c1ccc(Nc2cccc3ccccc23)cc1 [1-NPN, N-phenyl-1-naphthylamine, reference compound] |  |  |  |  | Kd (EoblGOBP2; direct titration, Scatchard equation, read-out: dissociation constant of 1-NPN to EoblGOBP2): ~2.31 µM |
| C=CC(C)(O)CCC=C(C)C (stereo not drawn) [Linalool] | > 50 | > 11.2 |  |  |  |
| CC1=CC[C@@H](C(C)(C)O)CC1 [α-terpineol] | > 50 | > 11.2 |  |  |  |
| O=Cc1ccccc1 [Benzaldehyde] |  |  | 44.2 | 197 | EAG response, male versus female antennae (E. obliqua antennae): stronger in male antennae than in female antennae |
| CC/C=C\CCO [(Z)-3-hexenol] | > 50 | > 11.2 |  |  |  |
| COC(=O)c1ccccc1O [Methyl salicylate] |  |  | 43.5 | 194 | EAG response, male versus female antennae (E. obliqua antennae): stronger in male antennae than in female antennae |
| CCCCOC(=O)c1ccccc1C(=O)OCCCC [Dibutyl phthalate] |  |  | 4.35 | 19.4 | EAG response in male and female antennae (in words) (E. obliqua antennae): weak responses |
| CCC/C=C/C=O [(E)-2-hexenal] |  |  | 32.2 | 143 | EAG response, male versus female antennae (E. obliqua antennae): stronger in male antennae than in female antennae |
| OCc1ccccc1 [Benzyl alcohol] | > 50 | > 11.2 |  |  |  |
| CCCCCO [n-pentanol] | > 50 | > 11.2 |  |  |  |
| CCCCCCCCCCCCCCCC(=O)O [Hexadecanoic acid] | > 50 | > 11.2 |  |  | binding to EoblGOBP2 (in words) (EoblGOBP2): could not bind |
| CC(=O)c1ccccc1 [Acetophenone] |  |  | 13 | 57.9 | EAG response, male versus female antennae (E. obliqua antennae): stronger in male antennae than in female antennae |
| CCCCCCC/C=C/C=O [(E)-2-decenal] |  |  | 20.7 | 92.4 | EAG response, male versus female antennae (E. obliqua antennae): stronger in male antennae than in female antennae |

Now from value to compound, other results behind:

| IC50 (EoblGOBP2; class symbol, protein 1.5 μM) [µM] | Kd (EoblGOBP2; [1]) [µM] | SMILES | Kd (EoblGOBP2; [2]) [µM] | IC50 (EoblGOBP2; [3]) [µM] | other results |
| --- | --- | --- | --- | --- | --- |
| > 50 | > 11.2 | CC(C)=CCC/C(C)=C\CO [Nerol] |  |  |  |
| > 50 | > 11.2 | CC/C=C/C=O [(E)-2-pentenal] |  |  |  |
| > 50 | > 11.2 | C1COCO1 [1,3-dioxolane] |  |  | binding to EoblGOBP2 (in words) (EoblGOBP2): could not bind |
